Data taken from patent US7605170B2, “8-azabicyclo[3.2.1]octane derivatives” (N.V. Organon, priority 2005, dated 2009).

Experiments:
Type in all cases: cell-based
[1] = target: T1, human noradrenaline transporter (hNET) (Homo sapiens, UniProt P23975); assay: Assay of monoamine uptake: inhibition of noradrenaline uptake; details: MDCK cells expressing hNET; 20 nM [3H]-neurotransmitter mixture; 37° C.; read-out: hNET pEC50 (inhibition of noradrenaline uptake) (converted)
T1 construct: expressed in transfected cells
T1 sequence (P23975 whole entry): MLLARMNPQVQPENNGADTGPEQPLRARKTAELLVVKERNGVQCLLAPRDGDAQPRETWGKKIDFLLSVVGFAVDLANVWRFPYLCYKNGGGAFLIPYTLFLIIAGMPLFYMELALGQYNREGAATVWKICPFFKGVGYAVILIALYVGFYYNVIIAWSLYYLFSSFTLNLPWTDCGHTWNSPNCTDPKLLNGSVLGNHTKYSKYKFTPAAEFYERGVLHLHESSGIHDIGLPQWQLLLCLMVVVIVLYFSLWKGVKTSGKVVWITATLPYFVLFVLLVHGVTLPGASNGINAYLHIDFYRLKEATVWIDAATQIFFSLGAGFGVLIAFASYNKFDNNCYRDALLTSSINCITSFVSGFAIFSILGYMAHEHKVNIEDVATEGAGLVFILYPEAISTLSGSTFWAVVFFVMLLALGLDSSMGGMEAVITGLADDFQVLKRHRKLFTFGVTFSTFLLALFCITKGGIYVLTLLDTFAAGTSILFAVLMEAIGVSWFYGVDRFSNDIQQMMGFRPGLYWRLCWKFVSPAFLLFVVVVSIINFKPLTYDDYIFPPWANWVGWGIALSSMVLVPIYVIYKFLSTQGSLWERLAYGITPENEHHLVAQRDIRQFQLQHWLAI
Description: (§1) The in vitro test for the inhibition of dopamine and serotonin uptake was performed in Chinese Hamster Ovary cells expressing the human dopamine transporter (hDAT) or the human serotonin transporter (hSERT). The in vitro test for the inhibition of noradrenaline uptake was performed in Madin Darby Canine Kidney Cells (MDCK) expressing the human noradrenaline transporter (hNET). Briefly, cell lines stably overexpressing the appropriate human transporter were propagated and plated according to standard cell culture techniques. Following plating, cells were left to adhere for either one or two days. A 6-point serial dilution (normally 1E-5M to 1E-10M) of test and reference compounds was prepared, added to the washed cells and incubated for 5 minutes at ambient temperature for dopamine or serotonin transporter overexpressing and 37° C. for noradrenaline overexpressing cells. Next, a final concentration of 20 nM of appropriate neurotransmitter (mixture of [^3H]-neurotransmitter and non-labelled neurtoransmitter) was added and the cells were incubated for three or five minutes at ambient temperature for dopamine or serotonin transporter overexpressing cells or ten minutes at 37° C. for noradrenaline overexpressing cells. Following termination of the assay, Microscint-20 was added directly to the cells and the amount of radioactivity taken up by the cells was estimated by scintillation counting.
(§2) pEC50 values indicating inhibition of monoamine uptake were calculated using standard curve fitting techniques.

[2] = target: T2, human serotonin transporter (hSERT) (Homo sapiens, UniProt P31645); assay: Assay of monoamine uptake: inhibition of serotonin uptake; details: Chinese Hamster Ovary cells expressing hSERT; 20 nM [3H]-neurotransmitter mixture; ambient temperature; read-out: hSERT pEC50 (inhibition of serotonin uptake) (converted)
T2 construct: expressed in transfected cells
T2 sequence (P31645 whole entry): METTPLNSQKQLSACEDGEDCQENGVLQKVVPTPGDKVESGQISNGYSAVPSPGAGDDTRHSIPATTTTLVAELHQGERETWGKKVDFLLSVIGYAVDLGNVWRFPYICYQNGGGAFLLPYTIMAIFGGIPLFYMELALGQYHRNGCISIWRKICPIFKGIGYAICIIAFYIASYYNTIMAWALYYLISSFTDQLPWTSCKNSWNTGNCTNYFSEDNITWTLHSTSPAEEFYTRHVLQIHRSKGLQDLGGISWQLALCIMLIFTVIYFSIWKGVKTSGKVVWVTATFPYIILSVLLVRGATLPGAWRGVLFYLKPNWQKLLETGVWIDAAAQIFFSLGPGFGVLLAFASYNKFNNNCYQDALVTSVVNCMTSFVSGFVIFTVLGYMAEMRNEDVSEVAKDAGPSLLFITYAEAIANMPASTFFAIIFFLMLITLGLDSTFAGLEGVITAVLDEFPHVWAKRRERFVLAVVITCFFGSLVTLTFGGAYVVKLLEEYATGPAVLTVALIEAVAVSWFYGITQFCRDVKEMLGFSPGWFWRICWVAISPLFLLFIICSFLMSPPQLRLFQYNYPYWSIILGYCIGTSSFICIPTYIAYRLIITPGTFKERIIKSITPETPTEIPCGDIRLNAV
Description: as §1, §2

[3] = target: T3, human dopamine transporter (hDAT) (Homo sapiens, UniProt Q01959); assay: Assay of monoamine uptake: inhibition of dopamine uptake; details: Chinese Hamster Ovary cells expressing hDAT; 20 nM [3H]-neurotransmitter mixture; ambient temperature; read-out: hDAT pEC50 (inhibition of dopamine uptake) (converted)
T3 construct: expressed in transfected cells
T3 sequence (Q01959 whole entry): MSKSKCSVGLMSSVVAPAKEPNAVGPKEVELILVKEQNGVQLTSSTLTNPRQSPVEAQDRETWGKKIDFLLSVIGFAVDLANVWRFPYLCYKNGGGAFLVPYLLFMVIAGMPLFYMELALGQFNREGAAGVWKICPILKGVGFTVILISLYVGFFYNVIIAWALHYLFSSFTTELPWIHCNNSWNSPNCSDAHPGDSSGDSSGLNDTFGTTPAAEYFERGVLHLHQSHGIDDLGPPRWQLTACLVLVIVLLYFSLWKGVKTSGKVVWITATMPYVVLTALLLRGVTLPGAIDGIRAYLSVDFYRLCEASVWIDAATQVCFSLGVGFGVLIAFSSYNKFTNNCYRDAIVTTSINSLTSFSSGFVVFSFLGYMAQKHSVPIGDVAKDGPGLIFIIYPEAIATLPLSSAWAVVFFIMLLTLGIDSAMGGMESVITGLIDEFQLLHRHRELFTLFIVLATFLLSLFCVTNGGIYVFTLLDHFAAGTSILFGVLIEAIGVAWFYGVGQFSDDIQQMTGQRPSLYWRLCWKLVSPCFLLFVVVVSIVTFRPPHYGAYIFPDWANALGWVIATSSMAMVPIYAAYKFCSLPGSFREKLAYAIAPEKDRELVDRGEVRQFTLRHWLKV
Description: as §1, §2

SMILES | EC50 [1] [nM] | EC50 [2] [nM] | EC50 [3] [nM]
COc1cc(Oc2ccccc2)cc(O[C@@H]2C[C@H]3CC[C@@H](C2)N3)c1F [IV.9, 3-exo-(2-Fluoro-3-methoxy-5-phenoxyphenoxy)-8-azabicyclo[3.2.1]octane] | < 100 | > 1000 | < 100
N#Cc1ccc(-c2cc(C#N)cc(O[C@@H]3C[C@H]4CC[C@@H](C3)N4)c2)nc1 [IX.3, exo 6-(3-(8-Azabicyclo[3.2.1]oct-3-yloxy)-5-cyanophenyl)nicotinonitrile] | > 1000 | < 100 | > 1000
FC(F)(F)c1ccccc1-c1cccc(O[C@@H]2C[C@H]3CC[C@@H](C2)N3)c1 [IV.8, 3-exo-(2′-Trifluoromethylbiphenyl-3-yloxy)-8-azabicyclo[3.2.1]octane] | < 100 | 100 to 1000 | > 1000
Clc1cc(Oc2ccccc2)cc(O[C@@H]2C[C@H]3CC[C@@H](C2)N3)c1 [IV.19, 3-exo-(3-Chloro-5-phenoxyphenoxy)-8-azabicyclo[3.2.1]octane] | < 100 | > 1000 | < 100
FC(F)(F)c1ccc(O[C@@H]2C[C@H]3CC[C@@H](C2)N3)cc1-c1ccccc1 [VI.3, 3-exo-(6-Trifluoromethylbiphenyl-3-yloxy)-8-azabicyclo[3.2.1]octane] | > 1000 | 100 to 1000 | > 1000
c1ccc(Oc2cccc(O[C@H]3C[C@H]4CC[C@@H](C3)N4)c2)cc1 [III.5, 3-endo-(3-Phenoxyphenoxy)-8-azabicyclo[3.2.1]octane] | 100 to 1000 | > 1000 | < 100
N#Cc1ccc(-c2cc(C#N)cc(O[C@@H]3C[C@H]4CC[C@@H](C3)N4)c2)cc1 [VI.8, exo 5-(8-Azabicyclo[3.2.1]oct-3-yloxy)-biphenyl-3,4′-dicarbonitrile] | > 1000 | < 100 | > 1000
